The experiment concerns the target T1, biotinylated Aβ1-42 (Homo sapiens, UniProt P05067).
T1 construct: To assure monomerisation of biotinylated Aβ1-42 (Anaspec #23523-0.5) the peptide was thoroughly monomerised; purchased Anaspec 23523-0.5
Briefly: Inhibition of Abeta oligomerisation (biotinylated Aβ1-42, neutravidin plate, streptavidin-HRP). As to conditions: inhibition of Aβ1-42 aggregation, approximately 12 nM Aβ1-42, PBS pH 7.4, 2% DMSO, 30 min RT. The experiment is classed as biochemical.
T1 sequence (P05067 672-713 limits assumed): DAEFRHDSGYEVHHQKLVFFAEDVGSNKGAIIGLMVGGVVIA
The IC50 is the concentration that gives 50% inhibition. High values mean lower potency, low ones higher potency. The compound `O=C(O)Cc1cc(-c2cccc(C(=O)O)c2)sc1-c1ccc(-c2sc(-c3cccc(C(=O)O)c3)cc2CC(=O)O)s1` [Example 10, 3-[4-(Carboxymethyl)-5-{5-[3-(carboxymethyl)-5-(3-carboxyphenyl)thiophen-2-yl]thiophen-2-yl}thiophen-2-yl]benzoic acid] showed an IC50 of 7.94 µM.

Compound `O=C(O)Cc1cc(-c2cccnc2)sc1-c1ccc(-c2sc(-c3ccc(C(=O)O)s3)cc2CC(=O)O)s1` [Example 13, 5-[4-(Carboxymethyl)-5-{5-[3-(carboxymethyl)-5-(pyridin-3-yl)thiophen-2-yl]thiophen-2-yl}thiophen-2-yl]thiophene-2-carboxylic acid] gave an IC50 of 7.94 µM.

`O=C(O)Cc1cccc(-c2ccc(-c3cc(CC(=O)O)c(-c4ccc(-c5sc(-c6ccc(-c7cccc(CC(=O)O)c7)s6)cc5CC(=O)O)s4)s3)s2)c1` [Example 57, 2-(2-{5-[3-(Carboxymethyl)-5-{5-[3-(carboxymethyl)phenyl]thiophen-2-yl}thiophen-2-yl]thiophen-2-yl}-5-{5-[3-(carboxymethyl)phenyl]thiophen-2-yl}thiophen-3-yl)acetic acid]: the midpoint of inhibition, the IC50, lay at 0.398 µM.

Compound `O=C(O)Cc1cc(-c2cccnc2)sc1-c1ccc(-c2sc(-c3cccnc3)cc2CC(=O)O)s1` [Example 15, 2-(2-{5-[3-(Carboxymethyl)-5-(pyridin-3-yl)thiophen-2-yl]thiophen-2-yl}-5-(pyridin-3-yl)thiophen-3-yl)acetic acid] showed a half-maximal inhibitory concentration (IC50) of 50.1 µM.

`CC(=O)NCCc1cc(-c2ccc(C(=O)O)s2)sc1-c1ccc(-c2sc(-c3ccc(C(=O)O)s3)cc2CCNC(C)=O)s1` [Example 7, 5-(5-{5-[5-(5-Carboxythiophen-2-yl)-3-(2-acetamidoethyl)thiophen-2-yl]thiophen-2-yl}-4-(2-acetamidoethyl)thiophen-2-yl)thiophene-2-carboxylic acid] had an IC50 of 3.98 µM.

Turning to `O=C(O)Cc1cc(-c2ccc(C(=O)N3CCCC3)c(F)c2)sc1-c1ccc(-c2sc(-c3ccc(C(=O)N4CCCC4)c(F)c3)cc2CC(=O)O)s1` [Example 78, 2-(2-{5-[3-(Carboxymethyl)-5-[3-fluoro-4-(pyrrolidine-1-carbonyl)phenyl]thiophen-2-yl]thiophen-2-yl}-5-[3-fluoro-4-(pyrrolidine-1-carbonyl)phenyl]thiophen-3-yl)acetic acid], half-maximal inhibition (IC50) required 5.01 µM.

The compound `CS(=O)(=O)c1ccc(-c2sc(-c3ccc(-c4cc(CC(=O)O)c(-c5ccc(S(C)(=O)=O)cc5)s4)s3)cc2CC(=O)O)cc1` [Example 36, 2-(5-{5-[4-(Carboxymethyl)-5-(4-methanesulfonylphenyl)thiophen-2-yl]thiophen-2-yl}-2-(4-methanesulfonylphenyl)thiophen-3-yl)acetic acid] gave an IC50 of 5.01 µM.

The compound `O=C(O)Cc1cc(-c2cccc(C(=O)O)c2)sc1-c1ccc(-c2sc(-c3ccc(C(=O)O)s3)cc2CC(=O)O)s1` [Example 14, 5-[4-(Carboxymethyl)-5-{5-[3-(carboxymethyl)-5-(3-carboxyphenyl)thiophen-2-yl]thiophen-2-yl}thiophen-2-yl]thiophene-2-carboxylic acid] showed an IC50 of 2 µM.

The compound `O=C(O)Cc1cc(-c2ccc(-c3cccc(C(=O)O)c3)s2)sc1-c1ccc(-c2sc(-c3ccc(-c4cccc(C(=O)O)c4)s3)cc2CC(=O)O)s1` [Example 20, 3-{5-[4-(Carboxymethyl)-5-{5-[3-(carboxymethyl)-5-[5-(3-carboxyphenyl)thiophen-2-yl]thiophen-2-yl]thiophen-2-yl}thiophen-2-yl]thiophen-2-yl}benzoic acid] had a half-maximal inhibitory concentration (IC50) of 1 µM.

In turn, `CS(=O)(=O)c1ccc(-c2cc(CC(=O)O)c(-c3ccc(-c4sc(-c5ccc(C(=O)O)s5)cc4CC(=O)O)s3)s2)cc1` [Example 75, 5-[4-(Carboxymethyl)-5-{5-[3-(carboxymethyl)-5-(4-methanesulfonylphenyl)thiophen-2-yl]thiophen-2-yl}thiophen-2-yl]thiophene-2-carboxylic acid] gave an IC50 of 31.6 µM.

As to `O=C(O)Cc1cc(-c2cccc(OC(F)(F)F)c2)sc1-c1ccc(-c2sc(-c3cccc(OC(F)(F)F)c3)cc2CC(=O)O)s1` [Example 87, 2-(2-{5-[3-(Carboxymethyl)-5-[3-(trifluoromethoxy)phenyl]thiophen-2-yl]thiophen-2-yl}-5-[3-(trifluoromethoxy)phenyl]thiophen-3-yl)acetic acid], it took 1 µM to reach half-maximal inhibition (IC50).

In turn, `O=C(O)Cc1cc(-c2ccc(-c3cc(CC(=O)O)c(-c4ccc(-c5ccc(C(=O)O)cc5)s4)s3)s2)sc1-c1ccc(-c2ccc(C(=O)O)cc2)s1` [Example 54, 4-{5-[3-(Carboxymethyl)-5-{5-[4-(carboxymethyl)-5-[5-(4-carboxyphenyl)thiophen-2-yl]thiophen-2-yl]thiophen-2-yl}thiophen-2-yl]thiophen-2-yl}benzoic acid] gave an IC50 of 1.26 µM.

`C[S+]([O-])c1cccc(-c2cc(CC(=O)O)c(-c3ccc(-c4sc(-c5cccc([S+](C)[O-])c5)cc4CC(=O)O)s3)s2)c1` (stereo not shown) [Example 24, 2-(2-{5-[3-(Carboxymethyl)-5-(3-methanesulfinylphenyl)thiophen-2-yl]thiophen-2-yl}-5-(3-methanesulfinylphenyl)thiophen-3-yl)acetic acid] showed an IC50 of 10 µM.

As for `CS(=O)(=O)c1cccc(-c2cc(CC(=O)O)c(-c3ccc(-c4sc(-c5cccc(S(C)(=O)=O)c5)cc4CC(=O)O)s3)s2)c1` [Example 22, 2-(2-{5-[3-(Carboxymethyl)-5-(3-methanesulfonylphenyl)thiophen-2-yl]thiophen-2-yl}-5-(3-methanesulfonylphenyl)thiophen-3-yl)acetic acid], the IC50 is 2.51 µM.

As for `O=C(O)Cc1cc(-c2ccc(-c3cc(CC(=O)O)c(-c4ccc(-c5cccc(C(=O)O)c5)s4)s3)s2)sc1-c1ccc(-c2cccc(C(=O)O)c2)s1` [Example 65, 3-{5-[3-(Carboxymethyl)-5-{5-[4-(carboxymethyl)-5-[5-(3-carboxyphenyl)thiophen-2-yl]thiophen-2-yl]thiophen-2-yl}thiophen-2-yl]thiophen-2-yl}thiophen-2-benzoic acid], the IC50 was 0.631 µM.

Compound `O=C(O)Cc1ccc(-c2ccc(-c3ccc(CC(=O)O)s3)s2)s1` [Example 72, 2-(5-{5-[5-(Carboxymethyl)thiophen-2-yl]thiophen-2-yl}thiophen-2-yl)acetic acid] had an IC50 of 25.1 µM.

Turning to `NCCc1ccsc1-c1ccc(-c2sccc2CCN)s1` [Example 8, 2-(2-{5-[3-(2-Aminoethyl)thiophen-2-yl]thiophen-2-yl}thiophen-3-yl)ethan-1-amine], the IC50 was 15.8 µM.

In turn, `O=C(O)Cc1ccsc1-c1ccc(-c2sc(-c3ccc(-c4cc(CC(=O)O)c(-c5ccc(-c6sccc6CC(=O)O)cc5)s4)cc3)cc2CC(=O)O)cc1` [Example 38, 2-(2-{4-[3-(Carboxymethyl)-5-{4-[4-(carboxymethyl)-5-{4-[3-(carboxymethyl)thiophen-2-yl]phenyl}thiophen-2-yl]phenyl}thiophen-2-yl]phenyl}thiophen-3-yl)acetic acid] had an IC50 of 1.58 µM.

`O=C(O)Cc1cc(-c2ccccc2C(=O)O)sc1-c1ccc(-c2sc(-c3ccccc3C(=O)O)cc2CC(=O)O)s1` [Example 11, 2-[4-(Carboxymethyl)-5-{5-[3-(carboxymethyl)-5-(2-carboxyphenyl)thiophen-2-yl]thiophen-2-yl}thiophen-2-yl]benzoic acid] showed an IC50 of 12.6 µM.

The compound `Cn1nc(C(F)(F)F)cc1-c1cc(CC(=O)O)c(-c2ccc(-c3sc(-c4cc(C(F)(F)F)nn4C)cc3CC(=O)O)s2)s1` [Example 77, 2-(2-{5-[3-(Carboxymethyl)-5-[1-methyl-3-(trifluoromethyl)-1H-pyrazol-5-yl]thiophen-2-yl]thiophen-2-yl}-5-[1-methyl-3-(trifluoromethyl)-1H-pyrazol-5-yl]thiophen-3-yl)acetic acid] gave an IC50 of 5.01 µM.

Turning to `O=C(O)Cc1cc(-c2cccc(C(=O)NC3CC3)c2)sc1-c1ccc(-c2sc(-c3cccc(C(=O)NC4CC4)c3)cc2CC(=O)O)s1` [Example 80, 2-(2-{5-[3-(Carboxymethyl)-5-[3-(cyclopropylcarbamoyl)phenyl]thiophen-2-yl]thiophen-2-yl}-5-[3-(cyclopropylcarbamoyl)phenyl]thiophen-3-yl)acetic acid], the half-inhibitory concentration (IC50) was 7.94 µM.

Turning to `COC(=O)c1ccc(-c2cc(CC(=O)O)c(-c3ccc(-c4sc(-c5ccc(C(=O)OC)s5)cc4CC(=O)O)s3)s2)s1` [Example 70, 2-(2-{5-[3-(Carboxymethyl)-5-[5-(methoxycarbonyl)thiophen-2-yl]thiophen-2-yl]thiophen-2-yl}-5-[5-(methoxycarbonyl)thiophen-2-yl]thiophen-3-yl)acetic acid], the IC50 was 3.16 µM.

Compound `O=C(O)c1cccc(-c2cc(CCO)c(-c3ccc(-c4sc(-c5cccc(C(=O)O)c5)cc4CCO)s3)s2)c1` [Example 74, 3-(5-{5-[5-(3-Carboxyphenyl)-3-(2-hydroxyethyl)thiophen-2-yl]thiophen-2-yl}-4-(2-hydroxyethyl)thiophen-2-yl)benzoic acid] had an IC50 of 5.01 µM.

Turning to `O=C(O)Cc1cc(Cl)sc1-c1ccc(-c2sc(-c3ccc(-c4cc(CC(=O)O)c(-c5ccc(-c6sc(Cl)cc6CC(=O)O)s5)s4)s3)cc2CC(=O)O)s1` [Example 58, 2-(2-{5-[3-(Carboxymethyl)-5-{5-[4-(carboxymethyl)-5-{5-[3-(carboxymethyl)-5-chlorothiophen-2-yl]thiophen-2-yl}thiophen-2-yl]thiophen-2-yl}thiophen-2-yl]thiophen-2-yl}-5-chlorothiophen-3-yl)acetic acid], it took 0.398 µM to reach half-maximal inhibition (IC50).

On to `O=C(O)Cc1ccsc1-c1ccc(-c2cc(CC(=O)O)c(-c3ccc(-c4sc(-c5ccc(-c6sccc6CC(=O)O)s5)cc4CC(=O)O)s3)s2)s1` [Example 84, 2-(2-{5-[3-(Carboxymethyl)-5-{5-[3-(carboxymethyl)thiophen-2-yl]thiophen-2-yl}thiophen-2-yl]thiophen-2-yl}-5-{5-[3-(carboxymethyl)thiophen-2-yl]thiophen-2-yl}thiophen-3-yl)acetic acid], for which it took 1.58 µM to reach half-maximal inhibition (IC50).
